Experiment [1] has as its target Mast/stem cell growth factor receptor Kit (Homo sapiens, UniProt P10721, T670I). Description: Inhibition of human c-Kit T670I mutant using poly[Glu:Tyr] (4:1) peptide substrate.
Experiment [2] has as its target Mast/stem cell growth factor receptor Kit (Homo sapiens, UniProt P10721, V654A). Description: Inhibition of human c-Kit V654A mutant using poly[Glu:Tyr] (4:1) peptide substrate.
The target in experiment [3] is T1, Platelet-derived growth factor receptor beta (Homo sapiens, UniProt P09619). Description: Binding affinity to human PDGFRbeata.
For experiment [4], the target named is T2, Mast/stem cell growth factor receptor Kit (Homo sapiens, UniProt P10721). Description: Binding affinity to human c-Kit.
Experiment [5] addresses T3, Receptor-type tyrosine-protein kinase FLT3 (Homo sapiens, UniProt P36888).
T3 sequence (P36888 whole entry): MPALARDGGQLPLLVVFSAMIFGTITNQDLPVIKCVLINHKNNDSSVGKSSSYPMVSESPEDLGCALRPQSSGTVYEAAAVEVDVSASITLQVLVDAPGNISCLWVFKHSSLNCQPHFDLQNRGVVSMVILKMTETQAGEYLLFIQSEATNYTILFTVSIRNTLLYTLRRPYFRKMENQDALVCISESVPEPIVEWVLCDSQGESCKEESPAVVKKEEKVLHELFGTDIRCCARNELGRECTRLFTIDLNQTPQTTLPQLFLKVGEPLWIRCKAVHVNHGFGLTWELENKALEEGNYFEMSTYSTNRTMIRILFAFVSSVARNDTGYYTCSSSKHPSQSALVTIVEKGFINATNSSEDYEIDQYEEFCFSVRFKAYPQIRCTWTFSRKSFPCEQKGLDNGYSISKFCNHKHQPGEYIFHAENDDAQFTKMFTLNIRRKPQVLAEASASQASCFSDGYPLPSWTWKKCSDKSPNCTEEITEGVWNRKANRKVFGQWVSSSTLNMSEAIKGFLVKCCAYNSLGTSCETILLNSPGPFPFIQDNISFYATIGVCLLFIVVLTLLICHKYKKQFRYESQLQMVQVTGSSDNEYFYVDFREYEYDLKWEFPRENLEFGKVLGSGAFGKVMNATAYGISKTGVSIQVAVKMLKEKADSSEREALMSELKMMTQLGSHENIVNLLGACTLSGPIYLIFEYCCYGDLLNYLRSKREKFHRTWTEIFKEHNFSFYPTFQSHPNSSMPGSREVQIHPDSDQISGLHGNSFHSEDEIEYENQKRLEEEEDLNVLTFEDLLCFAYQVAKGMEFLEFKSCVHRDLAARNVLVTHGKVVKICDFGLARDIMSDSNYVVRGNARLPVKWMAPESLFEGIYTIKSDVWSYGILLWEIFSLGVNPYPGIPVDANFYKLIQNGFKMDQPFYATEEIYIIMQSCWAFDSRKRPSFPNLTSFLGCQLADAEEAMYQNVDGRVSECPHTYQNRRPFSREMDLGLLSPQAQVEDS
Briefly: Binding affinity to human FLT3.

In experiment [6] the target is T1, Platelet-derived growth factor receptor beta. Description: Inhibition of human PDGFRbeta using poly[Glu:Tyr] (4:1) peptide substrate.
Experiment [7] has as its target T3, Receptor-type tyrosine-protein kinase FLT3. Description: Inhibition of human FLT3 using EAIYAAPFAKKK peptide substrate.
In experiment [8] the target is Tyrosine-protein kinase Lck (Homo sapiens, UniProt P06239). Briefly: Inhibition of human LCK using poly[Glu:Tyr] (4:1) peptide substrate.
The target of experiment [9] is T2, Mast/stem cell growth factor receptor Kit. Briefly: Inhibition of human c-Kit using poly[Glu:Tyr] (4:1) peptide substrate.
The target of experiment [10] is T4, Discoidin domain-containing receptor 2 (Homo sapiens, UniProt Q16832).
T4 sequence (Q16832 whole entry): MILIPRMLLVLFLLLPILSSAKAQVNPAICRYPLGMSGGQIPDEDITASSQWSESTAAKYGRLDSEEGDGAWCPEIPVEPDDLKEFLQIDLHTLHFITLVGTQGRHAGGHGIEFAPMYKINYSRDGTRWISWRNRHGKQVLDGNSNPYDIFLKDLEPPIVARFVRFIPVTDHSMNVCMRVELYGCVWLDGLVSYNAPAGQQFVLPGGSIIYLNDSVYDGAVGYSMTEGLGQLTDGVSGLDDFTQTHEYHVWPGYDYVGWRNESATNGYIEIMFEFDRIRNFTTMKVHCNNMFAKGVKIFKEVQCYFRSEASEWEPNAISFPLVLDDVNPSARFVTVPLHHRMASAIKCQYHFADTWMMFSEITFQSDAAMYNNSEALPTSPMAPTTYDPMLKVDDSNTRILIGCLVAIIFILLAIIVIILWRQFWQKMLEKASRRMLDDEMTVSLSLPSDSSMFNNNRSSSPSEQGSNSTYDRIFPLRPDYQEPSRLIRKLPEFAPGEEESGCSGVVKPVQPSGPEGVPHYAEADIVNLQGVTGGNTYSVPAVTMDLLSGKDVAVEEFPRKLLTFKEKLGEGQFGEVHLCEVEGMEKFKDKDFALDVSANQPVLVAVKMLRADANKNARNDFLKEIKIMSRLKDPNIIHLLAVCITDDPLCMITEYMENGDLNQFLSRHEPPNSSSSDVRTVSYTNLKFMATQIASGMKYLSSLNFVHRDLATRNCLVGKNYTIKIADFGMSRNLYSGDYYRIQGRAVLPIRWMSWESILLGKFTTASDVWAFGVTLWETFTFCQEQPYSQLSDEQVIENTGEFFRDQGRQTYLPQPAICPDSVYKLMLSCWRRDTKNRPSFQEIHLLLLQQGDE
Description: Inhibition of human DDR2 using KKSRGDYMTMQIG peptide substrate.

The target in experiment [11] is T4, Discoidin domain-containing receptor 2.
Description: Binding affinity to human DDR2

Each structure is given as a SMILES string. A value given as a limit tells only on which side of the number the result lay.

Sequence of Mast/stem cell growth factor receptor Kit (Homo sapiens, UniProt P10721, V654A) (P10721 26-976 V654A limits assumed): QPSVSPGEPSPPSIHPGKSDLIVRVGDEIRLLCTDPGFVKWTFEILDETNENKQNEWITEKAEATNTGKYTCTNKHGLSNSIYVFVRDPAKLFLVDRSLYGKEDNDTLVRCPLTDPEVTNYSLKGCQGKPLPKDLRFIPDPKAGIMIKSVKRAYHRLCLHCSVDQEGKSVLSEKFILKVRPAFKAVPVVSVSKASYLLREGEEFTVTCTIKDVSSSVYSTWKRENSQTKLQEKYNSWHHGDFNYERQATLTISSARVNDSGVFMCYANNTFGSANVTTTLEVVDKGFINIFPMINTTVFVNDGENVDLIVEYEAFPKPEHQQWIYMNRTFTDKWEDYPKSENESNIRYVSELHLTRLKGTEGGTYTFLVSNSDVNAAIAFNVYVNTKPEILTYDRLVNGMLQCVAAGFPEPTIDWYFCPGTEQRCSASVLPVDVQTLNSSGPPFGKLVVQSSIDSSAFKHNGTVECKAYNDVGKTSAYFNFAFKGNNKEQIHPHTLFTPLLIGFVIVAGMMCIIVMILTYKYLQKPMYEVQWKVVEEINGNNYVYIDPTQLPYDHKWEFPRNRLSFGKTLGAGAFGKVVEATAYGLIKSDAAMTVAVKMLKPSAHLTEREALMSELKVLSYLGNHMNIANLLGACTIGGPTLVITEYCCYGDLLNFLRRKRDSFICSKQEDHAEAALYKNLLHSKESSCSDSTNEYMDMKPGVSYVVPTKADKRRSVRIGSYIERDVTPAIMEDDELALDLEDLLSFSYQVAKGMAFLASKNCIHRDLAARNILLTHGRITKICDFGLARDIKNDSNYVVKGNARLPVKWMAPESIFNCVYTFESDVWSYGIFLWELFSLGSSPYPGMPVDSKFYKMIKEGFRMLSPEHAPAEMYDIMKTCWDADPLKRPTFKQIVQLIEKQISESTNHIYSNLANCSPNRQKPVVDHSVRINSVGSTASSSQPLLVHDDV
T2 sequence (P10721 whole entry): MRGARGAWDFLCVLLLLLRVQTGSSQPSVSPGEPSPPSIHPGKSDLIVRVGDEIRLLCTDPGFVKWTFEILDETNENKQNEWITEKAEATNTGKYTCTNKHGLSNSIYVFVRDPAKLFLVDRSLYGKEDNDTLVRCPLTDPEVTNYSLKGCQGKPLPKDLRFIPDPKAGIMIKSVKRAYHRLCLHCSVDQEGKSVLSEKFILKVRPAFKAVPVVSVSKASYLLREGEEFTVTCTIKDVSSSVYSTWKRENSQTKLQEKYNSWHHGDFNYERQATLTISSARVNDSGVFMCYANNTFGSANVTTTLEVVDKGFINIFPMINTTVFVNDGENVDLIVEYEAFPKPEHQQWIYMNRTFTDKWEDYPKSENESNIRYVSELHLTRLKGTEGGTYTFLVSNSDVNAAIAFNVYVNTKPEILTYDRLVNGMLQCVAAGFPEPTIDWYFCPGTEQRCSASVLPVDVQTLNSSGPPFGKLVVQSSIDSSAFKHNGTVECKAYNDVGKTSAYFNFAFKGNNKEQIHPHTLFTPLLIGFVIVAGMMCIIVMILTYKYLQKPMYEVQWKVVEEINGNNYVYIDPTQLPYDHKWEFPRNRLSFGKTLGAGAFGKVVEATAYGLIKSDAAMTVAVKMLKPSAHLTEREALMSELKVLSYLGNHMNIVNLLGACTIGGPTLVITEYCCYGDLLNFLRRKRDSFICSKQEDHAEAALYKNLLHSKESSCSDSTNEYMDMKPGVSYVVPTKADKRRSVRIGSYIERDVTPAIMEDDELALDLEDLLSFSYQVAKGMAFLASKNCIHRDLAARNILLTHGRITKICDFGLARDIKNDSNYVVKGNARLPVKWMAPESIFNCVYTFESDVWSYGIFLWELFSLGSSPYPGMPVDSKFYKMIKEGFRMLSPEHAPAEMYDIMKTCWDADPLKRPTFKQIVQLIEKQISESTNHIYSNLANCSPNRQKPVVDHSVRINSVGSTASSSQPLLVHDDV
Sequence of Tyrosine-protein kinase Lck (P06239 whole entry): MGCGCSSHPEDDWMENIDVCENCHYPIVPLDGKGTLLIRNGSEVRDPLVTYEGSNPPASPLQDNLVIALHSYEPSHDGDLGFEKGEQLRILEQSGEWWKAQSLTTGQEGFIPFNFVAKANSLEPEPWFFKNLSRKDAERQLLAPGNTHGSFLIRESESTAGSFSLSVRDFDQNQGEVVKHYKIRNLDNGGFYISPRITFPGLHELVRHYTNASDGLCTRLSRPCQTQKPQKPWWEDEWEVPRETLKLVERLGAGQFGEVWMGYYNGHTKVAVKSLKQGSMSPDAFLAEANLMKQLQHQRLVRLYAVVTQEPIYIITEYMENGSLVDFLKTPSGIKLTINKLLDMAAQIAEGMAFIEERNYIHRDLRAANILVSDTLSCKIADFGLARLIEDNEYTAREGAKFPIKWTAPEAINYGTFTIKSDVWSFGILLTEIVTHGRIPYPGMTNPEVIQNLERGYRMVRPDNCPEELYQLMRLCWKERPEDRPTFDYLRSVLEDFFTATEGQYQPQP
T1 sequence (P09619 whole entry): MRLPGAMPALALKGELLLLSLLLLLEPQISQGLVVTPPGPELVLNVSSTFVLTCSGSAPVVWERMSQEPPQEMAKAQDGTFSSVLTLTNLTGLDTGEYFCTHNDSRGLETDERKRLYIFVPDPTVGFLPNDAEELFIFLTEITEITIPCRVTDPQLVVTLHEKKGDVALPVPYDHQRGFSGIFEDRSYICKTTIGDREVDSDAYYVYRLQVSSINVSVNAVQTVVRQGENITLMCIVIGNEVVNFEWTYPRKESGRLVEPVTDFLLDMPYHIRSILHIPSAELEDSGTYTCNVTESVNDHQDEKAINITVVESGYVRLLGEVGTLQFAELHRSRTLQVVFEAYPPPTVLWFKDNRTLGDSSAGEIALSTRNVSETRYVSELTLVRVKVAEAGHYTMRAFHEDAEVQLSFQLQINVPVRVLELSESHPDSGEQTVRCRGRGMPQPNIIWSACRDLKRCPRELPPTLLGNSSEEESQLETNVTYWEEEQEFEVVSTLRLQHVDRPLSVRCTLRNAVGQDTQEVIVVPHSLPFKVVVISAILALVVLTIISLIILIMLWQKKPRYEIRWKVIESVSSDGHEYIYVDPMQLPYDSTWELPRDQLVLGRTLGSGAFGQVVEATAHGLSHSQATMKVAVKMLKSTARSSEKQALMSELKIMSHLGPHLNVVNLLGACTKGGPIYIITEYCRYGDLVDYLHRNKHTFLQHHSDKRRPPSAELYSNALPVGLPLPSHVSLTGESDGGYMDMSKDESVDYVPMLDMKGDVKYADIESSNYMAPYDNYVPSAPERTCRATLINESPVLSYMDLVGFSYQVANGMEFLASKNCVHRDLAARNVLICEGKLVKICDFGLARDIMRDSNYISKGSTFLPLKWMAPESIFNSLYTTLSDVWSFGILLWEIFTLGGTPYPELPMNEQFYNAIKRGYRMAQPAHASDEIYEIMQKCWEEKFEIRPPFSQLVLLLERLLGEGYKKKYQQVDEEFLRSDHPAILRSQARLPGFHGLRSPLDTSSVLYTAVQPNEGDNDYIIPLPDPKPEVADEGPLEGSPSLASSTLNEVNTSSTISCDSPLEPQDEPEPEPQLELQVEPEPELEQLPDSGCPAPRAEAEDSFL
Sequence of Mast/stem cell growth factor receptor Kit (Homo sapiens, UniProt P10721, T670I) (P10721 26-976 T670I limits assumed): as the sequence (P10721 26-976 V654A limits assumed) above, with A629V, T645I counted along it

Usually IC50 stands for the concentration needed to halve the response being measured. Higher therefore signals a need for much substance. In general, Kd refers to the equilibrium constant for the complex coming apart. A lower Kd goes with a tighter complex. For `Cc1cc(NC(=O)c2ccc(C)c(Nc3nccc(-c4cccnc4)n3)c2)cc(-n2cnc(C)c2)c1`, the IC50 in experiment [1] is over 1 µM; in experiment [2] it was over 1 µM; in experiment [6] it was 0.768 µM; in experiment [7], 0.882 µM; in experiment [8], 1.45 µM; in experiment [9] it was 0.0549 µM. Also, the IC50 in experiment [10] worked out at 0.0172 µM. The Kd stood at 0.012 µM in [3], 0.014 µM in experiment [4], 1.2 µM in [5] and 0.0056 µM in [11].
As for `Cc1cn(-c2cc(F)cc(NC(=O)c3ccc(C)c(Nc4nccc(-c5cccnc5)n4)c3)c2)cn1`, the IC50 in experiment [1] is over 1 µM; in experiment [2] it was over 0.4 µM; in experiment [6], over 5 µM; in experiment [7], 0.118 µM; in experiment [8], 11.1 µM; in [9] it was 0.00996 µM. The IC50 in [10] turned out to be 0.179 µM. The Kd stood at 0.0085 µM in experiment [3], 0.0035 µM in [4], 0.058 µM in [5] and 0.014 µM in [11].
For `Cc1cn(-c2cccc(NC(=O)c3ccc(C)c(Nc4nccc(-c5cccnc5)n4)c3)c2)cn1`, the IC50 was over 1 µM in experiment [1]; over 1 µM in experiment [2]; 35.4 µM in experiment [6]; 0.974 µM in experiment [7]; 44.6 µM in experiment [8]; 0.0325 µM in experiment [9]. The IC50 in [10] amounted to 0.653 µM. Further, the Kd in experiment [3] was determined as 0.0072 µM; in experiment [4], 0.0044 µM; in experiment [5], 1.4 µM; in experiment [11], 0.32 µM.

The values are drawn from ChEMBL document CHEMBL2311368 (Bioorg Med Chem Lett, 2013).
